Common to all, as to assay type: in vivo
In assay [1] the test system is Ipomoea hederaceae (IPOHE). The assay can be described thus: Pre-emergence biological efficacy, glasshouse, 1000 g/ha, evaluated after 13 days (100=total damage to plant; 0=no damage to plant). As to conditions: Ipomoea, 312 h, rate 1,000 g/ha, read-out: Percentage damage caused to weed species, pre-emergence, IPOHE. Here is the method:
(§1) Seeds of Alopecurus myosuroides (ALOMY), Setaria faberi (SETFA), Echinochloa crus-galli (ECHCG), Solanum nigrum (SOLNI), Amaranthus retroflexus (AMARE) and Ipomoea hederaceae (IPOHE) were sown in standard soil in pots. […] The test plants were then grown under controlled conditions in the glasshouse (at 24/16° C., day/night; 14 hours light; 65% humidity) and watered twice daily. […]

The test system of assay [2] is Alopecurus myosuroides (ALOMY). The assay is described as above. As to conditions: Alopecurus myosuroides, 312 h, rate 1,000 g/ha, read-out: Percentage damage caused to weed species, pre-emergence, ALOMY. Here is the method:
as §1

The test system of assay [3] is Echinochloa crus-galli (ECHCG). The assay is described as above. As to conditions: Echinochloa crus-galli, 312 h, rate 1,000 g/ha, read-out: Percentage damage caused to weed species, pre-emergence, ECHCG. The method, then: as §1
In assay [4] the test system is Solanum nigrum (SOLNI). The description is as above. Particulars: Solanum nigrum, 312 h, rate 1,000 g/ha, read-out: Percentage damage caused to weed species, pre-emergence, SOLNI. Here is the method: as §1
In assay [5] the test system is Amaranthus retroflexus (AMARE). The description is as above. Particulars: Amaranthus retroflexus, 312 h, rate 1,000 g/ha, read-out: Percentage damage caused to weed species, pre-emergence, AMARE. The method, then:
as §1

For assay [6], the system named is Setaria faberi (SETFA). The assay is described as above. As to conditions: Setaria faberi, 312 h, rate 1,000 g/ha, read-out: Percentage damage caused to weed species, pre-emergence, SETFA. Here is the method: as §1
In assay [7] the test system is Ipomoea hederaceae (IPOHE). The experiment in a line: Post-emergence biological efficacy, glasshouse, 500 or 1000 g/ha, evaluated after 13 days (100=total damage to plant; 0=no damage to plant). Particulars: Ipomoea, 312 h, rate 1,000 g/ha, read-out: Percentage damage caused to weed species, post-emergence, IPOHE. The method, then: (§2) Seeds of Alopecurus myosuroides (ALOMY), Setaria faberi (SETFA), Echinochloa […]), Solanum nigrum (SOLNI), Amaranthus retroflexus (AMARE) and Ipomoea hederaceae (IPOHE) were sown in standard soil in pots. […] The test plants were then grown on under controlled conditions in a glasshouse (at 24/16° C., day/night; 14 hours light; 65% humidity) and watered twice daily. […]

Assay [8] deals with Echinochloa crusgaffi (ECHCG). The assay is described as above. Particulars: Echinochloa, 312 h, rate 1,000 g/ha, read-out: Percentage damage caused to weed species, post-emergence, ECHCG. The method, then:
as §2

The subject of assay [9] is Alopecurus myosuroides (ALOMY). The description is as above. Particulars: Alopecurus myosuroides, 312 h, rate 1,000 g/ha, read-out: Percentage damage caused to weed species, post-emergence, ALOMY. The method, then: as §2
Assay [10] deals with Solanum nigrum (SOLNI). The description is as above. Particulars: Solanum nigrum, 312 h, rate 1,000 g/ha, read-out: Percentage damage caused to weed species, post-emergence, SOLNI. The method, then:
as §2

The subject of assay [11] is Amaranthus retroflexus (AMARE). The description is as above. As to conditions: Amaranthus retroflexus, 312 h, rate 1,000 g/ha, read-out: Percentage damage caused to weed species, post-emergence, AMARE. The method, then: as §2
Assay [12] relates to Setaria faberi (SETFA). Described as above. As to conditions: Setaria faberi, 312 h, rate 1,000 g/ha, read-out: Percentage damage caused to weed species, post-emergence, SETFA. The method, then: as §2

As for `COC(=O)c1nc(-c2ccc(Cl)c(OC)c2F)nc2[nH]cc(C)c12` [Compound 1-64, 2-(4-chloro-2-fluoro-3-methoxyphenyl)-4-methoxycarbonyl-5-methyl-7H-pyrrolo[2,3-d]pyrimidine], the pest or weed control at 1000 g/ha turned out to be 100% in assay [1]; 20% in assay [2]; 30% in [3]; 70% with Solanum nigrum (SOLNI) [4]; 100% in assay [5]; 10% with Setaria faberi (SETFA) [6]. In addition, the pest or weed control at 1000 g/ha was 70% in [7]; 70% in assay [8]; 20% in assay [9]; 80% in the assay with Solanum nigrum (SOLNI) [10]; 100% in [11]; 70% with Setaria faberi (SETFA) [12].
On to `COC(=O)c1nc(-c2ccc(Cl)c(F)c2)cc2[nH]cc(C)c12` [Compound 22-20, 6-(4-Chloro-3-fluorophenyl)-4-methoxycarbonyl-3-methyl-1H-pyrrolo[3,2-c]pyridine], for which the pest or weed control at 1000 g/ha in assay [1] is 80%; in assay [2] it was 20%; in assay [3], 20%; in the assay on Solanum nigrum (SOLNI) [4], 60%; in assay [5], 100%; in the assay on Setaria faberi (SETFA) [6] it was 0%. The pest or weed control at 1000 g/ha in assay [7] is 70%; in assay [8], 70%; in assay [9], 50%; with Solanum nigrum (SOLNI) [10] it was 80%; in assay [11] it was 100%; with Setaria faberi (SETFA) [12] it was 60%.
On to `COC(=O)c1nc(C2CC2)nc2c1NC(c1ccccc1)C(c1ccccc1)N2` (stereo not drawn) [Compound 91-44, 2-cyclopropyl-6,7-diphenyl-4-methoxycarbonyl-5,6,7,8-tetrahydropteridine], for which the pest or weed control at 1000 g/ha turned out to be 20% in assay [1]; 30% in [2]; 10% in assay [3]; 30% in the assay with Solanum nigrum (SOLNI) [4]; 70% in assay [5]; 0% in the assay on Setaria faberi (SETFA) [6]. The pest or weed control at 1000 g/ha in assay [7] was found to be 60%; in [8], 50%; in assay [9], 20%; in the assay on Solanum nigrum (SOLNI) [10], 90%; in assay [11], 70%; in the assay with Setaria faberi (SETFA) [12], 50%.
On to `COC(=O)c1nc(-c2ccc(Cl)c(F)c2)nc2c1ccn2CC1CC1` [Compound 5-18, 2-(4-Chloro-3-fluorophenyl)-7-cyclopropylmethyl-4-methoxycarbonyl-7H-pyrrolo[2,3-d]pyrimidine], for which the pest or weed control at 1000 g/ha (in [1]; in assay [2]; in assay [3]; with Solanum nigrum (SOLNI) [4]; in assay [5]; in the assay on Setaria faberi (SETFA) [6]) was 0% throughout. The pest or weed control at 1000 g/ha in assay [7] amounted to 0%; in assay [8], 0%; in assay [9] it was 0%; with Solanum nigrum (SOLNI) [10], 20%; in assay [11] it was 0%; in the assay on Setaria faberi (SETFA) [12], 0%.
For the compound `COc1c(Cl)ccc(-c2cc3[nH]cc(C)c3c(C(=O)OCc3ccccc3)n2)c1F` [Compound 22-86, 4-Benzyloxycarbonyl-6-(4-chloro-2-fluoro-3-methoxyphenyl)-3-methyl-1H-pyrrolo[3,2-c]pyridine], the pest or weed control at 1000 g/ha in assay [1] came to 0%; in [2], 0%; in assay [3] it was 0%; in the assay with Solanum nigrum (SOLNI) [4], 10%; in [5] it was 0%; with Setaria faberi (SETFA) [6] it was 0%. Besides, the pest or weed control at 1000 g/ha in [7] was determined as 40%; in [8], 10%; in assay [9] it was 10%; in the assay on Solanum nigrum (SOLNI) [10] it was 70%; in [11], 40%; in the assay on Setaria faberi (SETFA) [12], 0%.
With `CCCCCC(C)OC(=O)c1nc(-c2ccc(Cl)c(OC)c2F)nc2[nH]cc(C)c12` (stereo not drawn) [Compound 1-79, 2-(4-Chloro-2-fluoro-3-methoxyphenyl)-4-(hept-2-yloxycarbonyl)-5-methyl-7H-pyrrolo[2,3-d]pyrimidine], the pest or weed control at 1000 g/ha (in [1]; in [2]; in [3]; in the assay on Solanum nigrum (SOLNI) [4]; in [5]; in the assay on Setaria faberi (SETFA) [6]) was 0% throughout. For the same compound, the pest or weed control at 1000 g/ha in assay [7] is 20%; in assay [8], 0%; in [9], 0%; with Solanum nigrum (SOLNI) [10], 10%; in assay [11] it was 10%; with Setaria faberi (SETFA) [12], 0%.
Take `COc1c(Cl)ccc(-c2nc(C(=O)O)c3c(C)cn(Cc4ccc(F)cc4)c3n2)c1F` [Compound 9-63]: the pest or weed control at 1000 g/ha in assay [1] is 0%; in assay [2] it was 0%; in [3], 0%; in the assay on Solanum nigrum (SOLNI) [4] it was 10%; in [5], 20%; in the assay with Setaria faberi (SETFA) [6], 0%. Further, the pest or weed control at 1000 g/ha turned out to be 40% in assay [7]; 0% in assay [8]; 0% in assay [9]; 60% in the assay on Solanum nigrum (SOLNI) [10]; 20% in [11]; 0% with Setaria faberi (SETFA) [12].
As to `COC(=O)c1nc(Cl)nc2[nH]c(C)cc12` [Compound 1-126, 2-Chloro-4-methoxy-carbonyl-6-methyl-7H-pyrrolo[2,3-d]pyrimidine], the pest or weed control at 1000 g/ha (in [1]; in [2]; in assay [3]; in the assay on Solanum nigrum (SOLNI) [4]; in [5]; in the assay with Setaria faberi (SETFA) [6]) was 0% each time. For the same compound, the pest or weed control at 1000 g/ha (in [7]; in assay [8]; in [9]; with Solanum nigrum (SOLNI) [10]; in assay [11]; with Setaria faberi (SETFA) [12]) was 0% in each case.
Turning to `COc1c(Cl)ccc(-c2nc(C(=O)O)c3cc(C)n(Cc4ccccc4[N+](=O)[O-])c3n2)c1F` [Compound 8-65, 4-Carboxy-2-(4-chloro-2-fluoro-3-methoxyphenyl)-6-methyl-7-(2-nitrophenyl-methyl)-7H-pyrrolo[2,3-d]pyrimidine], the pest or weed control at 1000 g/ha (in assay [1]; in assay [2]; in assay [3]; in the assay on Solanum nigrum (SOLNI) [4]; in assay [5]; in the assay with Setaria faberi (SETFA) [6]) was 0% each time. Moreover, the pest or weed control at 1000 g/ha in assay [7] was found to be 10%; in assay [8], 0%; in assay [9], 0%; in the assay on Solanum nigrum (SOLNI) [10], 10%; in assay [11] it was 0%; with Setaria faberi (SETFA) [12] it was 20%.

(Values after patent US20120202690A1, “HERBICIDAL COMPOUNDS” (SYNGENTA LIMITED, priority 2009, published 2012).)
